Consider 26 sequences from US20140343249A1, “CELL KILLING FUSION PEPTIDE EXHIBITING TUMOR CELL-SPECIFIC NECROSIS INDUCTION AND TUMOR REGRESSION” (INDUSTRY-ACADEMIC COOPERATION FOUNDATION, CHOSUN UNIVERSITY, priority 2011, published 2014).

A short description of data set [1]: Movement activity of mouse after I.V. injection. Format: in vivo. The conditions noted are these: 10-30 min after I.V. injection of 75 ul (1 mM) into BalB/C mouse (about 20 g).
In the next data set the test system is CT-26 tumor. Put plainly: In vivo screening of tumor regression activity, CT-26 tumor in BALB/C mice. Particulars: for In vivo Screening: CT-26 tumor-bearing BALB/C mice, intravenous injection; for toxicity to the experimental animals: 100 ul (1 mM) intravenously 2-3 times (1 injection/day). Further details: key to In vivo Screening: NR: no regression (no decrease on the tumor volume); ND: not determined. Here is the method:
In order to test tumor regression activity of the cell-killing CKP fusion peptides manufactured in Example 1, colon cell line, CT-26 (1.5×10^5 cells) was subcutaneously injected into dorsal skin of BALB/C mice of 6 weeks old to form tumor. After about 10 days, when the formed tumor volume reach to about 70±10 mm^3, the cancer cell specific CKP fusion peptide 100 ul (1 mM) was intravenously injected continuously 2-3 times (1 injection/day) into 3 mice, respectively, and after 10-13 days, change on the tumor tissue volume (length×wide^2×0.5) was observed.

In data set [2] the test system is HeLa cells, cervical cancer cell line. Put plainly: Cell-killing activity of CKP peptide variants in HeLa, crystal violet staining. Format: cell-based, human. Particulars: 0-40 μM, 24 hours, peptides linked to PTD RRRRRRRRG
An excerpt: In order to examine whether variants, in which some amino acids of the CKP peptide (SEQ ID NO: 21; KLLNLISKLF) of the present invention are substituted, also have cell-killing activity or not, CKP2 (1 amino acid was substituted) (SEQ ID NO: 22; KALNLISKLF), CKP3 (2 amino acids were substituted) (SEQ ID NO: 23; KLAALISKLF), CKP4 (2 amino acids were substituted) (SEQ ID NO: 24; KLLNLIAALF) and CKP5 (3 amino acids were substituted) (SEQ ID NO: 25; KALNLIAALF), which are CKP peptide variants in which 1-3 of amino acid residues linked to the known protein transduction domain (PTD) having RRRRRRRRG (RQ) sequence are substituted, were synthesized by the procedure described in Example 1. Further, in order to investigate influence of substitution at the leucine's repeat in the CKP, the CKP peptide variants, CKP6 (2nd and 3rd L were substituted to A) (SEQ ID NO: 26; KAANLISKLF), CKP7 (5th L was substituted to A) (SEQ ID NO: 27; KLLNAISKLF) and CKP8 (9th L was substituted to A) (SEQ ID NO: 28; KLLNLISKAF) linked to the RRRRRRRRG (RQ) sequence of the protein transduction domain (PTD) were synthesized by the procedure described in Example 1. In order to test cell-killing activity of the variants, a cervical cancer cell line, HeLa cells were cultured, and the culture medium was replaced with culture medium containing 0, 1, 5, 10, 15, 20, 30 and 40 μM CKP peptide, respectively, followed by further culturing for 24 hours. Living cells attached to the bottom were stained with 100 μl 0.5% crystal violet solution for 10 min, and washed off with distilled water or tap water to remove dead cells floating on the culture medium and also to destain the crystal violet solution. Then, the cells were observed by photography after placing the culture vessel under a fluorescent lamp box as depicted in FIG. 14. The living cells attached to the bottom and stained with the crystal violet were appeared blue color. […] Accordingly, it was identified that the Leucine sequence is a region playing a critical role in cell-killing activity of the CKP.

Another data set has as its system cells. Particulars: in 10 minutes; cited from earlier work.
Data set [3] can be described thus: Hepatocyte toxicity: ALT and AST released to blood. Format: in vivo, mouse. Particulars: blood of treated groups by the time versus untreated control group. Here is the method: In order to confirm toxicity of the cell-killing CKP fusion peptide (CTD7:CKP), the amounts of alanine amino transferase (ALT) and aspartate amino transferase (AST) released to blood from hepatocytes of the damaged liver were measured and whether the hepatocytes was damaged or not was confirmed, so as to judge toxicity by the cell-killing CKP fusion peptide.

In a further data set the test system is liver tissue. The data set is described as follows: Toxicity in normal tissue (liver), histology. Format: in vivo, mouse. Particulars: intravenous injection, liver sections by the time. On the procedure: In order to evaluate the degree of toxicity to the liver tissue, liver tissue section was prepared as described in Example 8, and pathologically observed in a normal mice group not treated with the peptide, a tumor-formed group intravenously injected with 0.85% normal saline and groups intravenously injected with the cell-killing CKP fusion peptide by the time.

In the next data set the test system is splenocytes. Put plainly: Normal cell necrosis activity in splenocytes by XTT method. Format: cell-based, mouse. Particulars: splenocytes from BALB/c mice, 5, 10 and 20 μM, after 15 min. An excerpt: In order to test cell necrosis inducing activity of the cell-killing CKP fusion peptide (CTD7:CKP) selected in Example 3 in normal cells, primary peritoneal macrophages and splenocytes were isolated from BALB/c mice.
In order to obtain splenocytes, complete RPMI media was put into a cell culture dish, male mouse spleen was isolated, and tissue thereof was crushed and centrifuged. Pellet was washed once with media and centrifuged again, and ACK lysis buffer (0.15 M NH4Cl, […], 0.01 M Na2EDTA, pH 7.2-7.4) was added thereto and centrifuged again. Then the pellet was cultured in 5% FBS-containing complete RPMI media for primary culture of the splenocytes, and the media was replaced with culture medium containing 5, 10 and 20 μM of the cell-killing CKP fusion peptide (CTD7:CKP), and after 15 min, cell necrosis inducing activity was confirmed by XTT method.
(In general: Tetrazolium assays rely on reduction of a dye to a coloured formazan, in cell work by metabolically active cells.)

Where no end group is shown, it is not given here. Bounds are passed on as bounds.

“CGKRKGGKLLNLISKLF [CTD2:CKP, CGKRKGGKLLNLISKLF]”: the “Movement Activities” value in data set [1] was “Normal”.

Consider “CGRDKGPDCKLLNLISKLF (Cell killing fusion peptide) [CTD12:CKP]”, for which the “Movement Activities” value in data set [1] is recorded as “Normal”. “CNGRCGGKLLNLISKLF (Cell killing fusion peptide) [CTD1:CKP]”: the “Movement Activities” value in data set [1] is on record as “Slow”. For the same sequence, the “In vivo Screening” value in the data set on CT-26 tumor is recorded as “NR”.

For “CRGDKGGKLLNLISKLF [CTD18:CKP, CRGDKGGKLLNLISKLF]”, the “Movement Activities” value in data set [1] was “Slow”. The same measure, in the same setting: the result for “CRGDKGPDCKLLNLISKLF (Cell killing fusion peptide) [CTD15:CKP]” reads “Normal”. In the case of KAANLISKLF [CKP6], the “cell-killing activity compared with the CKP peptide” value in data set [2] is on record as “much decreased cell-killing activity”.

Take KALNLIAALF [CKP5]: in data set [2], the “cell-killing activity compared with the CKP peptide” value is “slightly decreased cell-killing activity”. Still for that read-out and setting: the result for KALNLISKLF [CKP2] reads “slightly decreased cell-killing activity”; that for KLAALISKLF [CKP3], “slightly decreased cell-killing activity”.

For KLLNAISKLF [CKP7], the “cell-killing activity compared with the CKP peptide” value in data set [2] is on record as “much decreased cell-killing activity”. On the same count and under the same terms, the result for KLLNLIAALF [CKP4] reads “better cell-killing activity”; that for KLLNLISKAF [CKP8], “much decreased cell-killing activity”. KLLNLISKLF (Cell Killing Peptide) [MTD]: the “cells killed (cell necrosis effect)” value in the data set with cells was no less than 80%. With “KLLNLISKLFCGRDKGPDC (Cell killing fusion peptide) [CTD13:CKP]”, in data set [1], the “Movement Activities” value was “Normal”. For the sequence “KLLNLISKLFCGRDKRLYDC (Cell killing fusion peptide) [CTD14:CKP]”, in data set [1], the “Movement Activities” value is on record as “Dead”. In the data set with CT-26 tumor, the “toxicity to the experimental animals” value is reported as “dead” and the “In vivo Screening” value is “Dead”. On to “KLLNLISKLFCRGDKGPDC (Cell killing fusion peptide) [CTD16:CKP]”, for which, in data set [1], the “Movement Activities” value is “Slow”. On to “KLLNLISKLFCRGDKRLYDC (Cell killing fusion peptide) [CTD17:CKP]”, for which, in data set [1], the “Movement Activities” value is “Slow”. For the same sequence, in the data set on CT-26 tumor, the “toxicity to the experimental animals” value is “toxicity removing the injected tail by necrosis” and the “In vivo Screening” value is “Toxic”. Take “KLLNLISKLFGGCGKRK [CTD3:CKP, KLLNLISKLFGGCGKRK]”: the “Movement Activities” value in data set [1] was “Normal”. On the same count and under the same terms, the result for “KLLNLISKLFGGCRGDK [CTD19:CKP, KLLNLISKLFGGCRGDK]” reads “Normal”. Regarding “KLLNLISKLFGGLGDRGDR (Cell killing fusion peptide) [CTD10:CKP]”, the “In vivo Screening” value in the data set with CT-26 tumor is given as “NR”.

Turning to “KLLNLISKLFGGRLLRLLR [CTD6:CKP, KLLNLISKLFGGRLLRLLR]”, the “Movement Activities” value in data set [1] is listed as “Normal”. Further, the “toxicity to the experimental animals” value in the data set on CT-26 tumor is on record as “toxicity removing the injected tail by necrosis”. In the case of “KLLNLISKLFGGRPARPAR [CTD8:CKP, KLLNLISKLFGGRPARPAR]”, the “Movement Activities” value in data set [1] is listed as “Slow”. With “RLLRLLRGGKLLNLISKLF [CTD5:CKP, RLLRLLRGGKLLNLISKLF]”, in data set [1], the “Movement Activities” value was “Slow”. The “toxicity to the experimental animals” value with CT-26 tumor is “toxicity removing the injected tail by necrosis”. Regarding “RPARPARGGKLLNLISKLF [CTD7:CKP, RPARPARGGKLLNLISKLF]”, the “Movement Activities” value in data set [1] is “Normal”. The “toxicity to the experimental animals” value with CT-26 tumor is on record as “no toxicity”. In data set [3], the “ALT released to blood (liver damage index)” value is given as “no difference” and the “AST released to blood (liver damage index)” value is reported as “no difference”. Further, the “damage of liver tissue (histology)” value in the data set on liver tissue is given as “any significant damage was not observed”. Moreover, the “cell-killing activity in normal cells” value with splenocytes is “did not show significant cell-killing activity”. Turning to WDLAWMFRLPVGKLLNLISKLF [CTD11:CKP], the “Movement Activities” value in data set [1] is given as “Normal”. Regarding “WIFPWIQLKLLNLISKLF [CTD4:CKP, WIFPWIQLKLLNLISKLF]”, the “Movement Activities” value in data set [1] was “Slow”. Also, the “toxicity to the experimental animals” value in the data set with CT-26 tumor is listed as “toxicity removing the injected tail by necrosis”.
